Read-outs that look alike come from different tables or passages of the source.
What was measured:
[1] = target: T1, T45G yeast alcohol dehydrogenase (ADH1) (Saccharomyces cerevisiae, UniProt P00330, T46G)
[2] = system: wild-type yeast alcohol dehydrogenase (ADH1); settings: pH 7.3, 30 °C, ref [21], cited from earlier work
[3] = target: T1, T45G yeast alcohol dehydrogenase (ADH1); assay: biochemical; assay type: biochemical
[4] = system: horse liver ADH1E with S48A substitution; settings: ref [6]; cited from earlier work
horse liver ADH = settings: cited from earlier work
[5] = target: wild-type yeast enzyme (ADH1); settings: read-out: Kd of NAD+; pH 8; ref [11]; cited from earlier work
[6] = target: T1, T45G yeast alcohol dehydrogenase (ADH1); assay: Spectrophotometric titration with NAD+ in the presence of 10 mM pyrazole; assay type: binding; settings: titration in the presence of 10 mM pyrazole
yeast ADH2 = settings: oxidation; ref [77]; cited from earlier work
yeast ADH1 = settings: oxidation; ref [77]; cited from earlier work

T1 sequence (P00330 2-348 T46G): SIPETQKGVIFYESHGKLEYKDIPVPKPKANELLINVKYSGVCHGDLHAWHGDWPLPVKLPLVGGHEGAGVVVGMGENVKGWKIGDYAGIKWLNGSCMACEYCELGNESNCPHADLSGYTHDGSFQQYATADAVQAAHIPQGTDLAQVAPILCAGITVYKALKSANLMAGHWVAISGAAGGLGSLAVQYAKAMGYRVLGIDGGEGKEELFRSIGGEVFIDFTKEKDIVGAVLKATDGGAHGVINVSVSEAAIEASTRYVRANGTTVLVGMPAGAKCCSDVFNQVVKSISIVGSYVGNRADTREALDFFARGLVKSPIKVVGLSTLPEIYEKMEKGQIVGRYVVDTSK

Compound: CC=O [acetaldehyde]
- Kp, CH3CHO ([1]; pH 5.52, 30 °C): 52 mM
- V2/Et (acetaldehyde reduction) ([1]; pH 5.52, 30 °C): 21 s⁻¹
- Kp, CH3CHO ([1]; pH 6.06, 30 °C): 46 mM
- V2/Et (acetaldehyde reduction) ([1]; pH 6.06, 30 °C): 16 s⁻¹
- Kp, CH3CHO ([1]; pH 6.52, 30 °C): 56 mM
- V2/Et (acetaldehyde reduction) ([1]; pH 6.52, 30 °C): 16 s⁻¹
- Kp, CH3CHO ([1]; pH 7.00, 30 °C): 41 mM
- V2/Et (acetaldehyde reduction) ([1]; pH 7.00, 30 °C): 9.5 s⁻¹
- Kp, CH3CHO ([1]; pH 7.65, 30 °C): 43 mM
- V2/Et (acetaldehyde reduction) ([1]; pH 7.65, 30 °C): 9.3 s⁻¹
- Kp, CH3CHO ([1]; pH 8.08, 30 °C): 35 mM
- V2/Et (acetaldehyde reduction) ([1]; pH 8.08, 30 °C): 7.3 s⁻¹
- Kp, CH3CHO ([1]; pH 8.96, 30 °C): 33 mM
- V2/Et (acetaldehyde reduction) ([1]; pH 8.96, 30 °C): 4.2 s⁻¹
- V2/Et, turnover number for acetaldehyde reduction [2]: 1800 s⁻¹
- V2/Et, turnover number for acetaldehyde reduction ([3]; pH 7.3, 30 °C): 7.8 s⁻¹

Compound: OCC(F)(F)F [CF3CH2OH, 2,2,2-trifluoroethanol]
- Ki ([2]; read-out: Ki, dissociation (inhibition) constant, competitive inhibitor of ethanol): 2500 µM
- Ki [3]: 27000 µM
- increase of dissociation constant (Ki), T45G relative to wild type ([3]; pH 7.3): 10 fold

Compound: NC(=O)C1=CN([C@@H]2O[C@H](COP(=O)(O)OP(=O)(O)OC[C@H]3O[C@@H](n4cnc5c(N)ncnc54)[C@H](O)[C@@H]3O)[C@@H](O)[C@H]2O)C=CC1 [NADH]
- Kq, NADH ([1]; pH 5.52, 30 °C): 9.6 µM
- Kq, NADH ([1]; pH 6.06, 30 °C): 3.4 µM
- Kq, NADH ([1]; pH 6.52, 30 °C): 18 µM
- Kq, NADH ([1]; pH 7.00, 30 °C): 13 µM
- Kq, NADH ([1]; pH 7.65, 30 °C): 220 µM
- Kq, NADH ([1]; pH 8.08, 30 °C): 320 µM
- Kq, NADH ([1]; pH 8.96, 30 °C): 910 µM
- Ki ([1]; read-out: Kiq, NADH, pH 5.52, 30 °C): 3.8 µM
- Ki ([1]; read-out: Kiq, NADH, pH 6.06, 30 °C): 8.6 µM
- Ki ([1]; read-out: Kiq, NADH, pH 6.52, 30 °C): 11 µM
- Ki ([1]; read-out: Kiq, NADH, pH 7.00, 30 °C): 38 µM
- Ki ([1]; read-out: Kiq, NADH, pH 7.65, 30 °C): 156 µM
- Ki ([1]; read-out: Kiq, NADH, pH 8.08, 30 °C): 290 µM
- Ki ([1]; read-out: Kiq, NADH, pH 8.96, 30 °C): 450 µM
- Kq, Michaelis constant for NADH [2]: 94 µM
- Ki ([2]; read-out: Kiq, dissociation (inhibition) constant for NADH): 31 µM
- Kq, Michaelis constant for NADH ([3]; pH 7.3, 30 °C): 47 µM
- Ki ([3]; read-out: Kiq, dissociation (inhibition) constant for NADH, pH 7.3, 30 °C): 70 µM

Compound: CCO [ethanol]
- V1/Et (ethanol oxidation) ([1]; pH 5.60, 30 °C): 0.11 s⁻¹
- V1/Et (ethanol oxidation) ([1]; pH 6.05, 30 °C): 0.19 s⁻¹
- V1/Et (ethanol oxidation) ([1]; pH 6.54, 30 °C): 0.32 s⁻¹
- V1/Et (ethanol oxidation) ([1]; pH 7.00, 30 °C): 0.42 s⁻¹
- V1/Et (ethanol oxidation) ([1]; pH 8.07, 30 °C): 0.72 s⁻¹
- V1/Et (ethanol oxidation) ([1]; pH 9.00, 30 °C): 0.56 s⁻¹
- V1/Et (ethanol oxidation) ([1]; pH 9.95, 30 °C): 0.44 s⁻¹
- Kb ([1]; read-out: Kb, CH3CH2OH, pH 9.95, 30 °C): 91000 µM
- V1/Et, turnover number for ethanol oxidation [2]: 360 s⁻¹
- V1/Et, turnover number for ethanol oxidation ([3]; pH 7.3, 30 °C): 0.64 s⁻¹
- turnover with ethanol [4]: 0.018 s⁻¹

Compound: NC(=O)c1ccc[n+]([C@@H]2O[C@H](COP(=O)([O-])OP(=O)(O)OC[C@H]3O[C@@H](n4cnc5c(N)ncnc54)[C@H](O)[C@@H]3O)[C@@H](O)[C@H]2O)c1 [NAD^+]
- Ka, NAD+ ([1]; pH 5.60, 30 °C): 660 µM
- Ka, NAD+ ([1]; pH 6.05, 30 °C): 510 µM
- Ka, NAD+ ([1]; pH 6.54, 30 °C): 720 µM
- Ka, NAD+ ([1]; pH 7.00, 30 °C): 690 µM
- Ka, NAD+ ([1]; pH 8.07, 30 °C): 2100 µM
- Ka, NAD+ ([1]; pH 9.00, 30 °C): 2140 µM
- Ka, NAD+ ([1]; pH 9.95, 30 °C): 1580 µM
- Ki ([1]; read-out: Kia, NAD+, pH 5.60, 30 °C): 800 µM
- Ki ([1]; read-out: Kia, NAD+, pH 6.05, 30 °C): 650 µM
- Ki ([1]; read-out: Kia, NAD+, pH 6.54, 30 °C): 720 µM
- Ki ([1]; read-out: Kia, NAD+, pH 7.00, 30 °C): 880 µM
- Ki ([1]; read-out: Kia, NAD+, pH 8.07, 30 °C): 1130 µM
- Ki ([1]; read-out: Kia, NAD+, pH 9.00, 30 °C): 1470 µM
- Ki ([1]; read-out: Kia, NAD+, pH 9.95, 30 °C): 2370 µM
- Kd (horse liver ADH; read-out: Kd of NAD+, open conformation of the protonated enzyme, pH 8, ref [11]): 670 µM
- Kd (horse liver ADH; read-out: observed dissociation constant for NAD+, after deprotonation and the conformational change, ref [52]): 27 µM
- Ka, Michaelis constant for NAD+ ([2]; 83 mM potassium phosphate, 40 mM KCl, 0.25 mM EDTA): 160 µM
- Ki ([2]; read-out: Kia, dissociation (inhibition) constant for NAD+): 950 µM
- Kd [5]: 1000 µM
- Ka, Michaelis constant for NAD+ ([3]; pH 7.3, 30 °C, 83 mM potassium phosphate, 40 mM KCl, 0.25 mM EDTA): 1500 µM
- Ki ([3]; read-out: Kia, dissociation (inhibition) constant for NAD+, pH 7.3, 30 °C): 1600 µM
- apparent Kd for NAD+ [6]: about the same as for wild-type enzyme

Compound: OCc1ccccc1 [Benzyl alcohol]
- turnover number (yeast ADH2): 1.9 s⁻¹
- turnover number (yeast ADH1): 0.012 s⁻¹

Source: article PMC8530938 (Chemico-biological interactions, 2021)
